Assay results reported in US20090209633A1, “Treatment of Pain With Resiniferatoxin and Related Analogs” (priority 2006, published 2009).

What was measured:
rat TRPV1 = molecular target: T1, rat TRPV1 (Rattus norvegicus, UniProt O35433); test: Whole-cell currents in Xenopus laevis oocytes expressing TRPV1 (double-electrode voltage clamp); assay type: cell-based; details: ruthenium red 100 μM; RTX 10 nM repeated application
T1 construct: expressed in transfected cells; host or cells: Xenopus laevis oocytes injected with TRPV1 cRNA
Protocol: Rat TRPV1 dcRNA. Cloned rat TRPV1 was obtained from the Julius Lab at the University of California San Francisco. TRPV1 cRNA was obtained using standard techniques known to those of skill in the art.
(§1) Electrophysiology. Whole-cell and single-channel currents were recorded from rat DRG neurons in culture and from Xenopus laevis oocytes injected with rat TRPV1 cRNA. Animals were cared for according to the standards of the National Institutes of Health (NIH). All animal use protocols were approved by Southern Illinois University School of Medicine Animal Care Committee.
Oocytes were obtained by an abdominal incision after anaesthetizing the frog by immersion in a 0.05% solution of 3-aminobenzoic acid ethyl ester (MS222). Animals were killed by a subcutaneous injection of a 2% solution of MS222 according to NIH guidelines. One day after separating the oocytes from the follicular layer, 50-70 nl TRPV1 cRNA was injected using a Drummond Nanoject (Drummond Scientific Co., Broomall, Pa., USA). Oocytes were used for recording from 3 days after the injection. Double-electrode voltage clamp was performed using a Warner amplifier (Warner Instruments, Hamden, Conn., USA). Data were digitized and stored on videotape or directly stored on the computer using a LabView interface (National Instruments, Austin, Tex., USA). Experiments were performed at 21-23° C. Oocytes were placed in a Perspex chamber superfused (5-10 ml min^−1) with Ca^2+-free Ringer solution containing (mM): NaCl 100, KCl 2.5 and Hepes 5; pH adjusted to 7.35 with NaOH. Current-voltage relationships were measured using 1-s voltage ramps from −80 to +80 mV.
This example tests the activation of whole-cell currents in oocytes by RTX. Whole-cell currents were recorded from oocytes heterologously expressing TRPV1. […] Agonist-induced currents are shown after subtracting the leak current in the absence of the agonist. […] In order to quantify this, we calculated the ratio of outward and inward currents. […] PKC activation increases sensitivity as well as TRPV1 translocation. […] (Szallasi et al. 1990b; Caterina et al. 1997; Marshall et al. 2003.)

native TRPV1 = molecular target: T2, native TRPV1 (Rattus norvegicus, UniProt O35433); test: Whole-cell currents in cultured embryonic DRG neurons (patch clamp); assay type: cell-based; details: capsazepine 10 μM
T2 construct: RTX-induced membrane currents on native TRPV1 in embryonic DRG neurons grown in culture; endogenous in cells; host or cells: primary rat E18 DRG neurons
Protocol: as §1
Primary DRG neuronal cultures were prepared from embryonic day 18 (E18) rat embryos. Adult pregnant rats were killed with an overdose of isoflurane. DRG were dissected and the cells were dissociated by triturating with a fire-polished glass pipette. Cells were cultured in Neurobasal medium (Life Technologies, Buffalo, N.Y., USA), supplemented with 10% fetal bovine serum (FBS), and grown on poly-D-lysine-coated glass coverslips. Cells were used from 5 to 15 days after plating. Small diameter (<30 μm) rounded neurons were selected for patch-clamp experiments. […] The Giga-seal patch-clamp technique was used to record whole-cell currents. For perforated-patch recordings, the bath solution contained (mM): sodium gluconate 140, KCl 2.5, Hepes 10, MgCl2 1 and ethylene glycol bis(2-aminoethyl ether)-N,N,N′N′-tetraacetic acid (EGTA) 1.5 (pH adjusted to 7.35 with NaOH), and the pipette solution contained (mM): sodium gluconate 130, NaCl 10, KCl 2.5, Hepes 10, MgCl2 1, EGTA 1.5 and 240 μg/ml^−1 amphotericin B (pH adjusted to 7.35 with NaOH). For current-clamp experiments the pipette solution contained (mM): potassium gluconate 130, NaCl 10, MgCl2 1, EGTA 0.2, K2ATP 1 and Hepes 10; pH adjusted to 7.35 with NaOH. Extracellular solution for current- and voltage-clamp experiments contained (mM): NaCl 140, KCl 4, MgCl2 1 and Hepes 10; pH adjusted to 7.35 with NaOH. Currents were recorded using a WPC 100 patch-clamp amplifier (E.S.F. Electronic, Goettingan, Germany). Data were filtered at 10 kHz, digitized (VR-10B, Instrutech Corp., Great Neck, N.Y., USA) and stored on videotapes or directly stored in the computer using a LabView interface. For analysis of whole-cell currents, data were filtered at 1 kHz (−3 db frequency with an 8-pole low-pass Bessel filter, Warner Instruments, LPF-8) and digitized at 2 kHz.
This example tests the activation of whole-cell current in DRG neurons by RTX. We determined the properties of RTX-induced membrane currents on native TRPV1 in embryonic DRG neurons grown in culture. […] Protons were not used to elicit currents because of the presence of acid-sensitive ion channels in these neurons.

T2 sequence (O35433 whole entry): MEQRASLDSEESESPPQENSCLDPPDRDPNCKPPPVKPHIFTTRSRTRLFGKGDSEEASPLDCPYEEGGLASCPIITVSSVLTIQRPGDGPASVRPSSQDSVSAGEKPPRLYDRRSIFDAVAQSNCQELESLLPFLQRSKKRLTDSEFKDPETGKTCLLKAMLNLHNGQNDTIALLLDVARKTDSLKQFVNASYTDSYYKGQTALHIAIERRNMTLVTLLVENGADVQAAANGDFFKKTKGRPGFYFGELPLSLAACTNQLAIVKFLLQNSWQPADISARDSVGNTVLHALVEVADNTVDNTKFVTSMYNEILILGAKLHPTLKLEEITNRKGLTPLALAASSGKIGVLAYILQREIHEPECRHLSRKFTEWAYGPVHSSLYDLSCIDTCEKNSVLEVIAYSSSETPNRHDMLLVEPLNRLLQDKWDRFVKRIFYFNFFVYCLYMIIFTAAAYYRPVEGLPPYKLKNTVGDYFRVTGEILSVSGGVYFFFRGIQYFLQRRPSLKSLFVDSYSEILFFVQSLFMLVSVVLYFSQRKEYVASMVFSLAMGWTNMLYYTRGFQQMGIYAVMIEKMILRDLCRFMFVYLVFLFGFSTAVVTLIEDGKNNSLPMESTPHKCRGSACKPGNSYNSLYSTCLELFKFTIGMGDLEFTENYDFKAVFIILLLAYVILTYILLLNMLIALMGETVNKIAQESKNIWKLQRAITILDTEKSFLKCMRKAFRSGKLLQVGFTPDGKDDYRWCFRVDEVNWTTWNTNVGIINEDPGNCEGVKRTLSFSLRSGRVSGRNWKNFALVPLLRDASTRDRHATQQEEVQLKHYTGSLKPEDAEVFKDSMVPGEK
T1 sequence (O35433 whole entry): as above

Row | SMILES | block of RTX-induced current (rat TRPV1) | block of current induced by capsaicin (1 μM) and RTX (10 nM) (native TRPV1) | rate of block induced by capsazepine (native TRPV1; RTX-induced (10 nM) currents) [s] | rate of block induced by capsazepine (native TRPV1; capsaicin-induced (1 μM) currents) [s]
1 | N.N.N.N.N.N.N.N.N.N.N.N.N.N.[Cl-].[Cl-].[Cl-].[Cl-].[Cl-].[Cl-].[O-2].[O-2].[Ru+3].[Ru+3].[Ru+4] [ruthenium red, reference compound] | readily blocked |  |  | 
2 | Oc1cc2c(cc1O)CN(C(=S)NCCc1ccc(Cl)cc1)CCC2 [capsazepine] |  | completely blocked | 612.3 ± 219 | 18.4 ± 2.8
